Test system: Neutrophil elastase activity in U937 cells
Test: Determination of neutrophil elastase activity in U937 cytosolic lysate preparation after incubation with test compound
Assay type: cell-based
Settings: Homo sapiens, U-937, read-out: Reduction of NE-activity in U937 cells IC50
Experimental: Determination of Neutrophil Elastase Activity in U937 Cytosolic Lysate Preparation after Incubation with Test Compound
Optiplate 384F were purchased from PerkinElmer (Prod. No. #6007270). 24 well Nunclon cell culture plates (No. 142475) and 96 well plates (No. 267245) were from Nunc. Dimethylsulfoxid (DMSO) was from Sigma (Prod. No. D8418). Nonidet-P40 (NP40) was from USBiological (Prod. No. N3500)
Substrate, specific for Neutrophil elastase, was from Bachem (MeOSuc-Ala-Ala-Pro-Val-AMC; Prod. No. 1-1270).
Human neutrophil elastase was from Calbiochem (Prod. No. 324681)
Tris-buffer (100 mM Tris; 1M NaCL; pH 7.5)
Tris-buffer+HSA 0.1%; Human Serum Albumin from Calbiochem (Cat#. 126658)
Serine-protease buffer (20 mM Tris; 100 mM NaCL; pH 7.5)+0.1% HSA
Serine protease lysis buffer: 20 mM Tris-HCL; 100 mM NaCl pH 7.5; +0.2% Nonidet-P40;
PBS: phosphate buffered saline, without Ca and Mg, from Gibco
U937 from ECACC (Cat. No. 85011440) cultured in suspension at 37° C. and 5% CO2.
Cell density: 0.2-1 Mio. Cells/ml.
Medium: RPMI1640 GlutaMAX (No. 61870) with 10% FCS from Gibco
Cell Seeding and Treatment:
Compounds in 100% DMSO were diluted in Medium (—FCS) with 10% DMSO and further diluted according to the experiment planned.
20 μl of the compound solution was transferred in the respective wells of the 24 well plate and diluted with 2 ml cell suspension/well containing […] (final concentration of DMSO=0.1%). Compound dilution factor=100
Compounds (up to 7 concentrations) were tested in triplicates with 3 wells for the DMSO 0.1% control, incubated for 48 hours without medium change at 37° C., 5% CO2 and 95% relative humidity.
Cell Harvesting and Cell Lysate:
Transfer the cell suspension in 2.2 ml Eppendorf cups. Separate cells from medium by centrifugation (400×g; 5 min; RT); discard the supernatant. Resuspend in 1 ml PBS; centrifugation (400×g; 5 min; RT); wash cells twice with PBS. Add 100 μl Serin lysis buffer (ice cold) to the cell pellet; resuspend the pellet and store on ice for 15 minutes. Remove debris by centrifugation at 15000×g for 10 min at 4° C. Transfer 80-100 μl lysate supernatant in 96 well plate and store immediately at −80° C.
Neutrophil Elastase Activity Assay:
Frozen lysates were thawn at 37° C. for 10 minutes and stored on ice. Protein content was determined with Bradford protein assay. Lysates were diluted to 0.2-0.5 mg/ml protein in serine protease buffer+HSA.
Standard: NE (100 μg/ml stock solution in Tris-buffer; stored at −80° C.) was diluted in Tris-buffer+HSA to 750 ng/ml, and further serially diluted 1:2 for the standard curve.
Buffer, blank, standard and lysate samples were transferred into 384 well plate
Blank: 5 μl Tris-buffer+10 μl Tris-buffer+HSA+5 μl Substrate
Standard: 5 μl Tris-buffer+10 μl NE (diff. conc.)+5 μl Substrate
Lysate: 5 μl Tris-buffer+10 μl Lysat+[…] Substrate
The increase in fluorescence (Ex360 nm/Em 460 nm) is determined over 30 minutes with a Molecular Device Spectramax M5 Fluorescence Reader. Kinetic Reduction (Vmax units/sec); 4 vmax points. The amount of neutrophil elastase (ng/ml) is calculated using the standard curve and the Spectramax software. The result is interpolated to ng/mg lysate protein using excel formula functions. […] IC50 is calculated using Graphpad Prism; nonlinear fitting (log(inhibitor) vs. response—Variable slope).

In the case of `CS(=O)(=O)c1cccc(-c2ccc(C[C@@H](C#N)NC(=O)[C@H]3N[C@@H]4CC[C@H]3C4)c(F)c2)c1` [Example 4, (1S,2S,4R)—N-[(1S)-1-cyano-2-[2-fluoro-4-(3-methylsulfonylphenyl)phenyl]ethyl]-3-azabicyclo[2.2.1]heptane-2-carboxamide], the IC50 is reported as 6.4 nM.
`COCCN1C(C)CN(c2ccc(C[C@@H](C#N)NC(=O)[C@H]3N[C@@H]4CC[C@H]3C4)c(F)c2)CC1C` (stereo partly drawn) [Example 191] gave an IC50 of 3.3 nM.
`CN1CCc2cc(-c3ccc(C[C@@H](C#N)NC(=O)[C@H]4N[C@@H]5CC[C@H]4C5)c(F)c3)ccc2C1=O` [Example 42] gave an IC50 of 8.3 nM.
`Cn1c(=O)c2cc(CC(C#N)NC(=O)[C@H]3N[C@@H]4CC[C@H]3C4)ccc2c2ccc(C#N)cc21` (stereo partly drawn) [Example 303] was tested, and the IC50 was 8.3 nM.
In the case of `Cn1cc(-c2ccc(C[C@@H](C#N)NC(=O)[C@H]3N[C@@H]4CC[C@H]3C4)c(F)c2)ccc1=O` [Example 254], the IC50 is reported as 30.5 nM.
`CN1CCN(S(=O)(=O)c2cccc(-c3ccc(C[C@@H](C#N)NC(=O)[C@H]4N[C@@H]5CC[C@H]4C5)c(F)c3)c2)CC1` [Example 224] showed an IC50 of 1 nM.
`N#Cc1cc(F)c2[nH]c(=O)c3cc(C[C@@H](C#N)NC(=O)[C@H]4N[C@@H]5CC[C@H]4C5)c(F)cc3c2c1` [Example 325] was tested, and the IC50 was 4.7 nM.
`CN(C)CCn1cc(-c2ccc(C[C@@H](C#N)NC(=O)[C@H]3N[C@@H]4CC[C@H]3C4)c(F)c2)ccc1=O` [Example 342] gave an IC50 of 24.7 nM.
In the case of `CN1CC=C(c2ccc(C[C@@H](C#N)NC(=O)[C@H]3N[C@@H]4CC[C@H]3C4)c(F)c2)CC1` [Example 223], the IC50 is reported as 3 nM.
With `COCCN1CCN(c2ccc(C[C@@H](C#N)NC(=O)[C@H]3N[C@@H]4CC[C@H]3C4)c(F)c2)CC1` [Example 182] the IC50 was 8.1 nM.
For `N#C[C@H](Cc1ccc(C2=CCN3CCOCC3C2)cc1F)NC(=O)[C@H]1N[C@@H]2CC[C@H]1C2` (stereo partly drawn) [Example 281], the IC50 was 1.9 nM.
`N#C[C@H](Cc1ccc(-c2csc(C(=O)N3CCN(C4CC4)CC3)c2)cc1F)NC(=O)[C@H]1N[C@@H]2CC[C@H]1C2` [Example 229] gave an IC50 of 2.9 nM.
`N#C[C@H](Cc1ccc(C2=CC3COCCN3CC2)cc1F)NC(=O)[C@H]1N[C@@H]2CC[C@H]1C2` (stereo partly drawn) [Example 282] was tested, and the IC50 was 3.4 nM.
In the case of `N#CC(Cc1cc2c(=O)[nH]c3ccccc3c2cc1F)NC(=O)[C@H]1N[C@@H]2CC[C@H]1C2` (stereo partly drawn) [Example 294], the IC50 is reported as 7.8 nM.
`N#C[C@H](Cc1ccc(N2CCN(C3CC3)CC2)cc1F)NC(=O)[C@H]1N[C@@H]2CC[C@H]1C2` [Example 187] was tested, and the IC50 was 7.3 nM.
`N#C[C@H](Cc1ccc(N2CCN3CCC[C@H]3C2)cc1F)NC(=O)[C@H]1N[C@@H]2CC[C@H]1C2` [Example 270] gave an IC50 of 1.4 nM.
Molecule `CN1CCN(C(=O)c2cc(-c3ccc(C[C@@H](C#N)NC(=O)[C@H]4N[C@@H]5CC[C@H]4C5)c(F)c3)cs2)CC1` [Example 225] has an IC50 of 2.8 nM.
With `CN1CCC(N2C(=O)Cc3ccc(-c4ccc(C[C@@H](C#N)NC(=O)[C@H]5N[C@@H]6CC[C@H]5C6)c(F)c4)cc32)CC1` [Example 346] the IC50 was 6.8 nM.
For `N#C[C@H](Cc1cc2c(=O)[nH]c3c(F)c(F)ccc3c2cc1F)NC(=O)[C@H]1N[C@@H]2CC[C@H]1C2` [Example 324], the IC50 was 1.3 nM.
`N#C[C@H](Cc1cc2c(=O)[nH]c3ccccc3c2cc1F)NC(=O)[C@H]1N[C@@H]2CC[C@H]1C2` [Example 322] showed an IC50 of 2.1 nM.
For `COCCN1CCN(c2ccc(C[C@@H](C#N)NC(=O)[C@H]3N[C@@H]4CC[C@H]3C4)c(F)c2)CC1C` (stereo partly drawn) [Example 178], the IC50 was 3.6 nM.
With `N#C[C@H](Cc1ccc(N2CCN(CC3CCCO3)CC2)cc1F)NC(=O)[C@H]1N[C@@H]2CC[C@H]1C2` (stereo partly drawn) [Example 154] the IC50 was 4.6 nM.
In the case of `CN1CCN(C(=O)c2coc(-c3ccc(C[C@@H](C#N)NC(=O)[C@H]4N[C@@H]5CC[C@H]4C5)c(F)c3)c2)CC1` [Example 241], the IC50 is reported as 5.3 nM.
With `CN1CCC2(C=C(c3ccc(C[C@@H](C#N)NC(=O)[C@H]4N[C@@H]5CC[C@H]4C5)c(F)c3)C2)CC1` [Example 359] the IC50 was 2.9 nM.
With `CC1CN(C)CCN1c1ccc(C[C@@H](C#N)NC(=O)[C@H]2N[C@@H]3CC[C@H]2C3)c(F)c1` (stereo partly drawn) [Example 192] the IC50 was 4.1 nM.
`CNc1nc2cc(-c3ccc(C[C@@H](C#N)NC(=O)[C@H]4N[C@@H]5CC[C@H]4C5)c(F)c3)ccc2n1C` [Example 253] was tested, and the IC50 was 5.5 nM.
In the case of `CN(C)CCCN1C(=O)Cc2ccc(-c3ccc(C[C@@H](C#N)NC(=O)[C@H]4N[C@@H]5CC[C@H]4C5)c(F)c3)cc21` [Example 277], the IC50 is reported as 3.6 nM.
With `C[C@H]1CN(C)CCN1c1ccc(C[C@@H](C#N)NC(=O)[C@H]2N[C@@H]3CC[C@H]2C3)c(F)c1` [Example 188] the IC50 was 4.4 nM.
In the case of `CN1CCN(S(=O)(=O)c2ccc(-c3ccc(C[C@@H](C#N)NC(=O)[C@H]4N[C@@H]5CC[C@H]4C5)c(F)c3)cc2)CC1` [Example 155], the IC50 is reported as 0.5 nM.
`N#C[C@H](Cc1ccc(-c2ccc(S(=O)(=O)N3CCOCC3)cc2)cc1F)NC(=O)[C@H]1N[C@@H]2CC[C@H]1C2` [Example 217] gave an IC50 of 7.5 nM.
Work on `CN1CCC2CN(c3ccc(C[C@@H](C#N)NC(=O)[C@H]4N[C@@H]5CC[C@H]4C5)c(F)c3)CC21` (stereo partly drawn) [Example 349] yielded an IC50 of 2.8 nM.
`CN1Cc2cc(-c3ccc(C[C@@H](C#N)NC(=O)[C@H]4N[C@@H]5CC[C@H]4C5)c(F)c3)ccc2S1(=O)=O` [Example 169] gave an IC50 of 9.1 nM.
`N#CC(Cc1cc2c(=O)[nH]c3cc(F)ccc3c2cc1F)NC(=O)[C@H]1N[C@@H]2CC[C@H]1C2` (stereo partly drawn) [Example 293] gave an IC50 of 4.6 nM.
`CN1CC2CCC(C1)N2c1ccc(C[C@@H](C#N)NC(=O)[C@H]2N[C@@H]3CC[C@H]2C3)c(F)c1` [Example 328] showed an IC50 of 1.2 nM.
`CN1CCC2(CC1)CC(c1ccc(C[C@@H](C#N)NC(=O)[C@H]3N[C@@H]4CC[C@H]3C4)c(F)c1)C2` [Example 358] was tested, and the IC50 was 3.7 nM.
With `CN1CCN(C(=O)c2ccc(-c3ccc(C[C@@H](C#N)NC(=O)[C@H]4N[C@@H]5CC[C@H]4C5)c(F)c3)o2)CC1` [Example 289] the IC50 was 3.9 nM.
In the case of `CN1Cc2ccc(-c3ccc(C[C@@H](C#N)NC(=O)[C@H]4N[C@@H]5CC[C@H]4C5)c(F)c3)cc2C1` [Example 1, (1S,2S,4R)—N-[(1S)-1-cyano-2-[2-fluoro-4-(2-methylisoindolin-5-yl)phenyl]ethyl]-3-azabicyclo[2.2.1]heptane-2-carboxamide], the IC50 is reported as 2.3 nM.
For `CN(C)CC1CCCN(c2ccc(C[C@@H](C#N)NC(=O)[C@H]3N[C@@H]4CC[C@H]3C4)c(F)c2)C1` (stereo partly drawn) [Example 345], the IC50 was 6.9 nM.
In the case of `CN(C)CCN1C(=O)Cc2ccc(-c3ccc(C[C@@H](C#N)NC(=O)[C@H]4N[C@@H]5CC[C@H]4C5)c(F)c3)cc21` [Example 278], the IC50 is reported as 1 nM.
`N#C[C@H](Cc1ccc(-c2ccc(=O)n(CC(F)F)c2)cc1F)NC(=O)[C@H]1N[C@@H]2CC[C@H]1C2` [Example 343] was tested, and the IC50 was 16.9 nM.
Molecule `N#C[C@H](Cc1ccc(-c2ccc(C(=O)N3CCn4nccc4C3)s2)cc1F)NC(=O)[C@H]1N[C@@H]2CC[C@H]1C2` [Example 237] has an IC50 of 9.6 nM.
In the case of `CN1CCCN(c2ccc(C[C@@H](C#N)NC(=O)[C@H]3N[C@@H]4CC[C@H]3C4)c(F)c2)CC1` [Example 247], the IC50 is reported as 8 nM.
`N#C[C@H](Cc1cc2c(=O)[nH]c3cc(F)ccc3c2cc1F)NC(=O)[C@H]1N[C@@H]2CC[C@H]1C2` [Example 323] was tested, and the IC50 was 1.4 nM.
Molecule `N#C[C@H](Cc1ccc(N2CCN3CCOC[C@@H]3C2)cc1F)NC(=O)[C@H]1N[C@@H]2CC[C@H]1C2` [Example 249] has an IC50 of 16.5 nM.
For `CC(C)N1CCN(C(=O)c2cc(-c3ccc(C[C@@H](C#N)NC(=O)[C@H]4N[C@@H]5CC[C@H]4C5)c(F)c3)cs2)CC1` [Example 227], the IC50 was 0.9 nM.
